We go through one compound from publication PMC10610214 (Pharmaceuticals, 2023).

The target of data set [1] is T1, BuChE (Equus caballus, UniProt P81908).
T1 construct: BuChE (from equine serum); purchased Sigma Chemical Company (St. Louis, MO, USA); host or cells: equine serum
Nature of the data set: Reversibility of BuChE inhibition, dilution method. It counts as biochemical. The note with it: for BuChE activity after dilution (reversibility): control 100. How it is done: The activities of the diluted residual enzymes were measured by Ellman’s modified method.
Reversibility studies were performed using a modified Ellman’s dilution method to measure the activity of the diluted residual enzyme. The AChE/BuChE (0.5 U/mL), ATCI/BTCI (0.01 M) and DTNB (0.01 M) were diluted with phosphate buffer pH = 7.4. […] At the end of incubation, 20 μL of DTNB solution was added to them. […] All the measured results are expressed as the mean ± SEM of the three independent experiments.

In data set [2] the target is T1, BuChE. Nature of the data set: Kinetic study of BuChE inhibition (Lineweaver–Burk). It counts as biochemical. The procedure: The specific steps are similar to those described in Section 4.3 for the enzyme inhibition assay. In brief, 100 μL of different concentrations of 4h (0, 0.075, 0.15, and 0.3 μM)/4h (0, 3, 6, and 12 μM) and 100 μL of different concentrations of AChE/BuChE (1, 0.5, 0.25, 0.125, and 0.0625 U/mL) were added into 48-well plates and then co-incubated at 37 °C for 30 min. After the end of incubation, 100 μL of ATCI/BTCI (0.35 mM), 100 μL of PB solution, and 100 μL DTNB (0.35 mM) were added, and then changes in absorbance were measured at different times at 412 nm by multifunctional microplate reader, and the catalytic reaction rate of AChE/BuChE was determined. All concentrations are final. With the enzyme reaction rate V as the ordinate and AChE/BuChE concentration as the abscissa, the curve was drawn to determine the reversibility of the compound to AChE/BuChE.
In order to determination of inhibition types and the constant of AChE/BuChE, the concentration of AChE/BuChE (0.5 U/mL) in the reaction system was fixed. Five different substrate concentrations and four different concentrations of test compound 4h were used to measure the absorbance changes at different times at 412 nm. The reciprocal of the enzymatic reaction rate (1/V) was taken as the ordinate, and the reciprocal of the substrate ATCI/BTCI concentration (1/S) was taken as the abscissa.
[…]. […]

The next data set deals with H2O2-induced PC12 cells. Nature of the data set: Neuroprotection against H2O2-induced PC12 cell injury (MTT). Format: cell-based. To be noted: H2O2 250 μM, mean ± SEM.
For a further data set, the system named is TNF-α in BV2 cells. Nature of the data set: TNF-α secretion in LPS-stimulated BV2 cells (ELISA). It counts as cell-based. To be noted: Mus musculus, BV-2, 24 h, read-out: TNF-α inhibition IC50. The procedure: The cytotoxicity of compounds on BV2 cells were evaluated by MTT assay and similar to those described in Section 2.5. The NO concentrations in medium were determined using Griess Reagent assay (Beyotime) in accordance with a previously reported method. Nitrite is reduced to nitrogen oxide using Griess Reagent I. Nitrogen oxide then reacts with Griess Reagent II forming a stable product that can be detected by its absorbance at […]. The two-step assay is simple, fast, and can detect nitrite levels as low as 1 nmol/well. BV2 cells were seeded into a 48-well plate at a density of 6.0 × 10^4 cells per well. After the cells were incubated overnight, the old medium was discarded. Then, the cells were pretreated with various concentrations (10, 5, 1, 0.5, and 0.1 μM) of compounds for 1 h and then co-incubated with LPS (1 μg/mL, 30 μL/well) for 24 h. After 24 h, the cell supernatant (50 μL/well) was placed into a new 96-well plate for experiment. […] The absorbance at […] was measured by a microplate reader.
The contents of TNF-α and IL-β in the cell supernatant were measured via ELISA (Jyimei, Wuhan, China) following the manufacturer’s instructions.
In general terms: ELISA stands for enzyme-linked immunosorbent assay.

A further data set is described as follows: in vitro. Format: in vitro ADME, SD rats. The note with it: pH 7.4. The procedure: The incubation was terminated at different time points by adding 0.5 mL of ice-cold CH3CN. A parallel incubation was performed in the absence of a NADPH-regenerating system with microsomes as the negative control, and the reactions were terminated after the corresponding time incubation. After centrifugation with 12,500 rpm at 4 °C for 10 min, the supernatant was directly analyzed by the HPLC UV systems (Agilent HPLC 1200 instrument). Three independent experiments were performed in triplicate.

The target in data set [3] is T2, Aβ1-42 (Homo sapiens, UniProt P05067). The experiment in a line: TEM of Aβ1-42 self-aggregation. The note with it: 4h 100 μM, Aβ1-42 5 μM, 48 h.
T2 sequence (P05067 672-713 limits assumed): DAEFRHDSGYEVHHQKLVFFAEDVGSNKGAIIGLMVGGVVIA
Description: Transmission Electron Microscope (TEM) studies were performed as previously described. […] After 2 days, a copper mesh was used to adsorb the samples, then stained with phosphotungstic acid, and the Aβ1-42 self-aggregation by TEM was observed (Talos L1200C, Thermo Fisher Scientific, Waltham, MA, USA).
In data set [4] the target is T2, Aβ1-42. Nature of the data set: Self-induced Aβ1-42 aggregation, thioflavin T fluorescence. Also noted: final concentrations of 20 μM of Aβ1-42 and 100 μM of test compound; purchased Beyotime Institute of Biotechnology. It counts as biochemical. The note with it: 100 μM inhibitor; ThT; 48 h; read-out: Inhibition of Self-Induced Aβ Aggregation (%). How it is done:
The inhibitory effect of compounds on Aβ42 was determined by Thioflavin T (ThT) fluorescence assay. In short, the dilution of Aβ42 solution (Beyotime Biotechnology, Hang Zhou, China) and test compounds was carried out with phosphate buffer (50 mM, pH 7.4) to obtain final concentrations of 20 μM of Aβ1-42 and 100 μM of test compound, such as curcumin (20 μM). The mixture was incubated in 96-well plates at room temperature for 48 h in the dark. When the incubation was complete, the samples were diluted to 200 µL (final volume) with glycine–NaOH buffer (50 mM, pH 8.0) containing 5 μM ThT.

T1 sequence (P81908 whole entry): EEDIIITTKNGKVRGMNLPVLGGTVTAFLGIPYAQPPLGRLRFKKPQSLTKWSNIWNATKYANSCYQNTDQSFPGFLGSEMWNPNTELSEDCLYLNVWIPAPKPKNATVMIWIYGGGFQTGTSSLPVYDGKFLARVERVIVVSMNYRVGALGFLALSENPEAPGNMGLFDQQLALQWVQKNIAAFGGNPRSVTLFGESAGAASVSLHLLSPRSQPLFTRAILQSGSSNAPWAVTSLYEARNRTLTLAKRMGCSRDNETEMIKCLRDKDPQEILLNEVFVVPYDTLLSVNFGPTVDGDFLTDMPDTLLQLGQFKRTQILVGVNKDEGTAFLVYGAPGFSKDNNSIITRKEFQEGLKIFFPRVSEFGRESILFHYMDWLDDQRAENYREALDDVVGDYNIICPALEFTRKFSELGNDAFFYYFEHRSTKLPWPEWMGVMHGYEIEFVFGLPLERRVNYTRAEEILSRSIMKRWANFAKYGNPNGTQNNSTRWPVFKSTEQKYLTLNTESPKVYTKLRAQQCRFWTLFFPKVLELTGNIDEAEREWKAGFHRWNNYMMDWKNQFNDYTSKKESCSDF

As usually defined, the Ki is the dissociation constant of the complex between target and ligand, obtained from inhibition or displacement. Read a high Ki as a looser hold on the target. One may read the IC50 as the concentration needed to halve the response being measured. A word on the half-life: it is the time in which the quantity being followed falls by half. One may read the inhibition as the share of the control response that was lost under treatment. In the case of `O=C1c2cc(NS(=O)(=O)c3ccccc3F)ccc2-n2c1nc1ccccc1c2=O` [4h], on BuChE [1] (dilution method), the “Reversibility of BuChE inhibition” value is reported as “reversible inhibitor”. Also, the results for the “BuChE activity after dilution (reversibility)” value on BuChE [1] (final inhibitor 0.1 × IC50 after 100-fold dilution) and at BuChE [1] (final inhibitor 1 × IC50 after 100-fold dilution) were 92.2 ± 0.52 and 84.9 ± 1.2, respectively. Further, the BuChE inhibition type entry on BuChE [2] (Lineweaver–Burk double-reciprocal plot) is on record as “mixed-type inhibition”. Affinity on BuChE [2] (Lineweaver–Burk secondary plot) was put at a Ki of 5.33 µM. Moreover, the results for the “H2O2-Induced PC12 Cell Viability (% of Control)” value with H2O2-induced PC12 cells (compound 10 μM) and in the data set with H2O2-induced PC12 cells (compound 30 μM) were 61.66 ± 1.3 % of Control and 71.31 ± 1.9 % of Control, respectively. The IC50 with TNF-α in BV2 cells stood at 1.31 ± 0.28 µM. Besides, the K in the data set “in vitro” (SD, rat, 100 μM) is 0.00574 ± 0.00037 min⁻¹. The half-life at 100 μM in “in vitro” (SD rat liver microsomes) was determined as 1.8 ± 0.0817 h. Besides, the “Morphology of Aβ1-42 aggregates (TEM)” value at Aβ1-42 [3] was “aggregation of Aβ1-42 samples was remarkably reduced”. In addition, the inhibition at 100 µM at Aβ1-42 [4] came to 63.2 ± 2.33%.
